ChEMBL document CHEMBL1909046, “DrugMatrix in vitro pharmacology data”

Tests used:
[1] = DRUGMATRIX: GABAA, Muscimol, Central radioligand binding (ligand: [3H] Muscimol); type: cell membranes, Rattus norvegicus, Wistar, Brain, Membrane; conditions: Not Active = under 50% inhibition at 10 µM
[2] = molecular target: cGMP-specific 3',5'-cyclic phosphodiesterase (Homo sapiens, UniProt O76074); assay: DRUGMATRIX: Phosphodiesterase PDE5 enzyme inhibition (substrate: [3H]cGMP + cGMP); type: tissue-based, Platelet; conditions: platelet; Not Active = under 50% inhibition at 10 µM
[3] = DRUGMATRIX: Potassium Channel [KATP] radioligand binding (ligand: [3H] Glyburide); type: cell membranes, Membrane; conditions: hit-t15, Not Active = under 50% inhibition at 10 µM
Neutrophil elastase = molecular target: T1, Neutrophil elastase (Homo sapiens, UniProt P08246); type: tissue-based;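 further: inhibition of neutrophil elastase enzyme activity, measured with a p-nitroanilide-linked peptide substrate; in other assays of this panel Not Active means under 50% inhibition at 10 µM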
T1 sequence (P08246 whole entry): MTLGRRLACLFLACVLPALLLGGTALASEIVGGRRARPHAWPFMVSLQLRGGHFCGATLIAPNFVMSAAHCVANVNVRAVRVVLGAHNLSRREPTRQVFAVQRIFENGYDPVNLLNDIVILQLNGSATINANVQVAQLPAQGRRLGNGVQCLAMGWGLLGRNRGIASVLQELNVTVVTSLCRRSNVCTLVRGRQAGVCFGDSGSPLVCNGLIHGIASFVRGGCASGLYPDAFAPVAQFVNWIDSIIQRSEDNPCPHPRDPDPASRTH

Adenosine receptor A1 = molecular target: T2, Adenosine receptor A1 (Homo sapiens, UniProt P30542); type: cell membranes, CHO, Membrane; conditions: cho;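 further: radioligand binding assay at the adenosine A1 receptor, with DPCPX serving as the labelled ligand; in other assays of this panel Not Active means under 50% inhibition at 10 µM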
T2 sequence (P30542 whole entry): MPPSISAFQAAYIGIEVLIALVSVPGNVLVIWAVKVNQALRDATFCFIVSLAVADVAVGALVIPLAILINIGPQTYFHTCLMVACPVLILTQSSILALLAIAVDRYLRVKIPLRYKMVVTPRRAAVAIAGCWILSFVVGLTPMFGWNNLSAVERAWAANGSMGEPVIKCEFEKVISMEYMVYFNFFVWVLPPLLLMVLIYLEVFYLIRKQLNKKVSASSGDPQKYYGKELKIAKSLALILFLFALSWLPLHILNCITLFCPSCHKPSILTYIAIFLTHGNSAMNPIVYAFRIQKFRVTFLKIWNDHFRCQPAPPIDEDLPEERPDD

Adenosine receptor A2a = Adenosine receptor A2a (Homo sapiens, UniProt P29274); assay: DRUGMATRIX: Adenosine A2A radioligand binding (ligand: […]); type: cell membranes, HEK293, Membrane; conditions: hek293; Not Active = under 50% inhibition at 10 µM
Adenosine receptor A2a, sequence (P29274 whole entry): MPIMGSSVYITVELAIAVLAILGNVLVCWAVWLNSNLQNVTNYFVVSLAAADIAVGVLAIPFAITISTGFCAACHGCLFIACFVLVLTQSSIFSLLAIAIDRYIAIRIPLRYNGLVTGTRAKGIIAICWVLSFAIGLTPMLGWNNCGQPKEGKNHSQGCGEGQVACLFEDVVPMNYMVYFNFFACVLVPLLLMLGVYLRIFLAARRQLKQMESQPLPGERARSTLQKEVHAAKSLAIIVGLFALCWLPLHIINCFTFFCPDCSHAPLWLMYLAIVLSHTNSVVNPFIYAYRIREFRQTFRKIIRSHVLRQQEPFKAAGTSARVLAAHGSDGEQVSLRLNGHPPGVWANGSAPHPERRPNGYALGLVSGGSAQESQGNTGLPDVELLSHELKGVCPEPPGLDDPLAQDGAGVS

Cytochrome P450 2E1 = Cytochrome P450 2E1 (Homo sapiens, UniProt P05181); conditions: bti-tn-5b1-4; further: in other assays of this panel Not Active means under 50% inhibition at 10 µM
Cytochrome P450 2E1, sequence (P05181 whole entry): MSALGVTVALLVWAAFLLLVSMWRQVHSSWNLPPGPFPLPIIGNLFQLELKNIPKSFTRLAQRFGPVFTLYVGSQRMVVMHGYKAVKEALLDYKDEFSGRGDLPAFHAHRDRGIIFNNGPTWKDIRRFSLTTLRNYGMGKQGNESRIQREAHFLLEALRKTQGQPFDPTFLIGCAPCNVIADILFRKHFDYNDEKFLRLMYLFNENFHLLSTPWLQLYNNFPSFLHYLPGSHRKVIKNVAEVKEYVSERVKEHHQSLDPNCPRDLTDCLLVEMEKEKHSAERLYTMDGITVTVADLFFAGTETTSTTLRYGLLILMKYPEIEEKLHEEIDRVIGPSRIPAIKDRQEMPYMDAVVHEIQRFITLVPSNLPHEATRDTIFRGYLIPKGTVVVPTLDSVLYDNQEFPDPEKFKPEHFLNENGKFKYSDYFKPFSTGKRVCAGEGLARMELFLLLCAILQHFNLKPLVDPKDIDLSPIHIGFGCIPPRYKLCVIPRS

Cl.NC[C@H]1CC[C@H](C(=O)Oc2ccc(CCC(=O)O)cc2)CC1 [CETRAXATE HYDROCHLORIDE]
IC50 [1]: Not Active
Ki [1]: Not Active
IC50 [2]: Not Active
IC50 [3]: Not Active
Ki [3]: Not Active
IC50 (Neutrophil elastase): Not Active
IC50 (Adenosine receptor A1): Not Active
IC50 (Adenosine receptor A2a): Not Active
IC50 (Cytochrome P450 2E1): Not Active
Ki (Cytochrome P450 2E1): Not Active

COc1ccccc1OCCNCC(O)COc1cccc2[nH]c3ccccc3c12 (stereo not given) [CARVEDILOL]
IC50 [1]: Not Active
Ki [1]: Not Active
IC50 [2]: Not Active
IC50 [3]: Not Active
Ki [3]: Not Active
IC50 (Neutrophil elastase): Not Active
IC50 (Adenosine receptor A1): Not Active
IC50 (Adenosine receptor A2a): Not Active
IC50 (Cytochrome P450 2E1): Not Active
Ki (Cytochrome P450 2E1): Not Active

C[C@H](C(=O)O)c1ccc2oc(-c3ccc(F)cc3)nc2c1 [FLUNOXAPROFEN]
IC50 [1]: Not Active
Ki [1]: Not Active
IC50 [2]: Not Active
IC50 [3]: Not Active
Ki [3]: Not Active
IC50 (Neutrophil elastase): Not Active
IC50 (Adenosine receptor A1): Not Active
IC50 (Adenosine receptor A2a): Not Active
IC50 (Cytochrome P450 2E1): Not Active
Ki (Cytochrome P450 2E1): Not Active

CCN1CCN(c2cc3c(cc2F)c(=O)c(C(=O)O)cn3C2CC2)CC1 [ENROFLOXACIN]
IC50 [1]: Not Active
Ki [1]: Not Active
IC50 [2]: Not Active
IC50 [3]: Not Active
Ki [3]: Not Active
IC50 (Neutrophil elastase): Not Active
IC50 (Adenosine receptor A1): Not Active
IC50 (Adenosine receptor A2a): Not Active
IC50 (Cytochrome P450 2E1): Not Active
Ki (Cytochrome P450 2E1): Not Active

C[C@]12CC[C@@H](O)C[C@@H]1CC[C@@H]1[C@@H]2CC[C@]2(C)C(=O)CC[C@@H]12 [ANDROSTERONE]
IC50 [1]: Not Active
Ki [1]: Not Active
IC50 [2]: Not Active
IC50 [3]: Not Active
Ki [3]: Not Active
IC50 (Neutrophil elastase): Not Active
IC50 (Adenosine receptor A1): Not Active
IC50 (Adenosine receptor A2a): Not Active
IC50 (Cytochrome P450 2E1): Not Active
Ki (Cytochrome P450 2E1): Not Active

O=C(NCCN1CCOCC1)c1ccc(Cl)cc1 [MOCLOBEMIDE]
IC50 [1]: Not Active
Ki [1]: Not Active
IC50 [2]: Not Active
IC50 [3]: Not Active
Ki [3]: Not Active
IC50 (Neutrophil elastase): Not Active
IC50 (Adenosine receptor A1): Not Active
IC50 (Adenosine receptor A2a): Not Active
IC50 (Cytochrome P450 2E1): Not Active
Ki (Cytochrome P450 2E1): Not Active

NC(=O)CN1CCCC1=O
IC50 [1]: Not Active
Ki [1]: Not Active
IC50 [2]: Not Active
IC50 [3]: Not Active
Ki [3]: Not Active
IC50 (Neutrophil elastase): Not Active
IC50 (Adenosine receptor A1): Not Active
IC50 (Adenosine receptor A2a): Not Active
IC50 (Cytochrome P450 2E1): Not Active
Ki (Cytochrome P450 2E1): Not Active

Oc1ccccc1 [PHENOL]
IC50 [1]: Not Active
Ki [1]: Not Active
IC50 [2]: Not Active
IC50 [3]: Not Active
Ki [3]: Not Active
IC50 (Neutrophil elastase): Not Active
IC50 (Adenosine receptor A1): Not Active
IC50 (Adenosine receptor A2a): Not Active
IC50 (Cytochrome P450 2E1): Not Active
Ki (Cytochrome P450 2E1): Not Active

CCO [ALCOHOL]
IC50 [1]: Not Active
Ki [1]: Not Active
IC50 [2]: Not Active
IC50 [3]: Not Active
Ki [3]: Not Active
IC50 (Neutrophil elastase): Not Active
IC50 (Adenosine receptor A1): Not Active
IC50 (Adenosine receptor A2a): Not Active
IC50 (Cytochrome P450 2E1): Not Active
Ki (Cytochrome P450 2E1): Not Active

COc1ccc(Cl)cc1C(=O)NCCc1ccc(S(=O)(=O)NC(=O)NC2CCCCC2)cc1 [GLYBURIDE]
IC50 [1]: Not Active
Ki [1]: Not Active
IC50 [2]: Not Active
IC50 ([3]; read-out: IC50): 3.8 nM
Ki ([3]; read-out: Ki): 0.432 nM
IC50 (Neutrophil elastase): Not Active
IC50 (Adenosine receptor A1): Not Active
IC50 (Adenosine receptor A2a): Not Active
IC50 (Cytochrome P450 2E1): Not Active
Ki (Cytochrome P450 2E1): Not Active

OC[C@H]1O[C@@H]2O[C@H]3[C@H](O)[C@@H](O)[C@@H](O[C@H]4[C@H](O)[C@@H](O)[C@@H](O[C@H]5[C@H](O)[C@@H](O)[C@@H](O[C@H]6[C@H](O)[C@@H](O)[C@@H](O[C@H]7[C@H](O)[C@@H](O)[C@@H](O[C@H]8[C@H](O)[C@@H](O)[C@@H](O[C@H]1[C@H](O)[C@H]2O)O[C@@H]8CO)O[C@@H]7CO)O[C@@H]6CO)O[C@@H]5CO)O[C@@H]4CO)O[C@@H]3CO [BETADEX]
IC50 [1]: Not Active
Ki [1]: Not Active
IC50 [2]: Not Active
IC50 [3]: Not Active
Ki [3]: Not Active
IC50 (Neutrophil elastase): Not Active
IC50 (Adenosine receptor A1): Not Active
IC50 (Adenosine receptor A2a): Not Active
IC50 (Cytochrome P450 2E1): Not Active
Ki (Cytochrome P450 2E1): Not Active

COc1cc(NC(C)CCCN)c2ncccc2c1 (stereo not given) [PRIMAQUINE]
IC50 [1]: Not Active
Ki [1]: Not Active
IC50 [2]: Not Active
IC50 [3]: Not Active
Ki [3]: Not Active
IC50 (Neutrophil elastase): Not Active
IC50 (Adenosine receptor A1): Not Active
IC50 (Adenosine receptor A2a): Not Active
IC50 (Cytochrome P450 2E1): Not Active
Ki (Cytochrome P450 2E1): Not Active

Cc1c(N)nc([C@H](CC(N)=O)NC[C@H](N)C(N)=O)nc1C(=O)N[C@H](C(=O)N[C@H](C)[C@@H](O)[C@H](C)C(=O)N[C@H](C(=O)NCCc1nc(-c2nc(C(=O)NCCC[S+](C)C)cs2)cs1)[C@@H](C)O)[C@@H](O[C@@H]1O[C@@H](CO)[C@@H](O)[C@H](O)[C@@H]1O[C@H]1O[C@H](CO)[C@@H](O)[C@H](OC(N)=O)[C@@H]1O)c1c[nH]cn1.[Br-] [BLEOMYCIN A2]
IC50 [1]: Not Active
Ki [1]: Not Active
IC50 [2]: Not Active
IC50 [3]: Not Active
Ki [3]: Not Active
IC50 (Neutrophil elastase): Not Active
IC50 (Adenosine receptor A1): Not Active
IC50 (Adenosine receptor A2a): Not Active
IC50 (Cytochrome P450 2E1): Not Active
Ki (Cytochrome P450 2E1): Not Active

c1ccc2c(c1)Nc1ccccc1S2 [PHENOTHIAZINE]
IC50 [1]: Not Active
Ki [1]: Not Active
IC50 [2]: Not Active
IC50 [3]: Not Active
Ki [3]: Not Active
IC50 (Neutrophil elastase): Not Active
IC50 (Adenosine receptor A1): Not Active
IC50 (Adenosine receptor A2a): Not Active
IC50 (Cytochrome P450 2E1): Not Active
Ki (Cytochrome P450 2E1): Not Active

OC[C@H]1OC2C3[C@@H](CO)OC(O[C@H]4[C@H](O)[C@@H](O)[C@@H](O[C@H]5[C@H](O)[C@@H](O)[C@@H](O[C@H]6[C@H](O)[C@@H](O)[C@@H](O[C@H]7[C@H](O)[C@@H](O)[C@@H](O[C@H]8[C@H](O)[C@@H](O)[C@@H](O[C@H]9[C@H](O)[C@@H](O)C(OC1[C@H](O)[C@H]2O)O[C@@H]9CO)O[C@@H]8CO)O[C@@H]7CO)O[C@@H]6CO)O[C@@H]5CO)O[C@@H]4CO)[C@H](O)[C@H]3O
IC50 [1]: Not Active
Ki [1]: Not Active
IC50 [2]: Not Active
IC50 [3]: Not Active
Ki [3]: Not Active
IC50 (Neutrophil elastase): Not Active
IC50 (Adenosine receptor A1): Not Active
IC50 (Adenosine receptor A2a): Not Active
IC50 (Cytochrome P450 2E1): Not Active
Ki (Cytochrome P450 2E1): Not Active

CC(C)Cc1ccc([C@H](C)C(=O)O)cc1 [DEXIBUPROFEN]
IC50 [1]: Not Active
Ki [1]: Not Active
IC50 [2]: Not Active
IC50 [3]: Not Active
Ki [3]: Not Active
IC50 (Neutrophil elastase): Not Active
IC50 (Adenosine receptor A1): Not Active
IC50 (Adenosine receptor A2a): Not Active
IC50 (Cytochrome P450 2E1): Not Active
Ki (Cytochrome P450 2E1): Not Active

CC(N)Cc1c[nH]c2ccc(OCc3cccs3)cc12 (stereo not given) [BW-723C86]
IC50 [1]: Not Active
Ki [1]: Not Active
IC50 [2]: Not Active
IC50 [3]: Not Active
Ki [3]: Not Active
IC50 (Neutrophil elastase): Not Active
IC50 (Adenosine receptor A1): Not Active
IC50 (Adenosine receptor A2a): Not Active
IC50 (Cytochrome P450 2E1): Not Active
Ki (Cytochrome P450 2E1): Not Active

CC(=O)[C@]1(O)Cc2c(O)c3c(c(O)c2[C@@H](O[C@H]2C[C@H](N)[C@H](O)[C@H](C)O2)C1)C(=O)c1ccccc1C3=O [IDARUBICIN]
IC50 [1]: Not Active
Ki [1]: Not Active
IC50 [2]: Not Active
IC50 [3]: Not Active
Ki [3]: Not Active
IC50 (Neutrophil elastase): Not Active
IC50 (Adenosine receptor A1): Not Active
IC50 (Adenosine receptor A2a): Not Active
IC50 (Cytochrome P450 2E1): Not Active
Ki (Cytochrome P450 2E1): Not Active

NC(=O)NC(=O)Cc1ccccc1 [PHENACEMIDE]
IC50 [1]: Not Active
Ki [1]: Not Active
IC50 [2]: Not Active
IC50 [3]: Not Active
Ki [3]: Not Active
IC50 (Neutrophil elastase): Not Active
IC50 (Adenosine receptor A1): Not Active
IC50 (Adenosine receptor A2a): Not Active
IC50 (Cytochrome P450 2E1): Not Active
Ki (Cytochrome P450 2E1): Not Active
